From patent publication US9522920B2, “Bromodomain inhibitors and uses thereof” (Constellation Pharmaceuticals, Inc., priority 2010, dated 2016)
Read-outs that look alike come from different tables or passages of the source.

Assays:
BRD4(BD1) = target: T1, BRD4(BD1) (Homo sapiens, UniProt O60885); assay: BRD4 AlphaLisa binding assay (Alphascreen)
T1 construct: His; made in house
Summary of the method: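 BRD4(BD1) (30 nM) incubated 20 min at room temperature with peptide (200 nM) and compound in 40 mM HEPES pH 7.0, 40 mM NaCl, 1 mM DTT, 0.01% BSA, 0.008% Brij-35, 1.2% DMSO.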

MYC mRNA [1] = assay: cMyc RNA quantification assay (QuantiGene) in Raji cells; assay type: cell-based; conditions: 4 h
Description: (§1) MV4:11 (AML) or Raji (Burkitt's lymphoma) cells were seeded in a 96-well plate and incubated in the presence of various concentrations of compounds for 4 h. Relative mRNA levels were quantitated by using QuantiGene 2.0 assay (Affymetrix) according to the manufacturer's recommendation. Signals were detected by using an Envision plate reader (Perkin-Elmer). Biological duplicates were averaged and normalized to vehicle (DMSO) control to calculate percent MYC mRNA levels.

MYC mRNA [2] = assay: cMyc RNA quantification assay (QuantiGene) in MV4:11 cells; assay type: cell-based; conditions: read-out: MYC-MV411
Description: as §1

IL-6 secretion = assay: Cell-based IL-6 quantification assay (ELISA, Mesoscale) in LPS-stimulated THP-1 cells; conditions: THP-1 cells, 16 h, read-out: IL6
Summary of the method: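 THP-1 cells stimulated with LPS at 4 μg/mL final and exposed to compounds for 16 h. Supernatant IL-6 measured by Mesoscale ELISA and normalized to CellTiter-Glo cell content. Percent inhibition derived from that ratio.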

[3] = Table 14, BRD4 AlphaLisa Binding Assay, read-out: Alpha screen
[4] = Homo sapiens, Table 14, Raji cells
[5] = Homo sapiens, MV4-11, 4 h, Table 14, MV4:11 cells
[6] = Homo sapiens, THP-1, 16 h, Table 14, LPS

| SMILES | IC50 (BRD4(BD1); [3]) | IC50 (MYC mRNA [2]; [5]) | IC50 (IL-6 secretion; [6]) | further results |
| --- | --- | --- | --- | --- |
| Cc1noc2c1-c1sc(C)c(C)c1C(c1ccc(C#N)cc1)=N[C@H]2[C@@H](C)C(N)=O [Compound 209, (2R)-2-((6S)-4-(4-cyanophenyl)-2,3,9-trimethyl-6H-isoxazolo[5,4-c]thieno[2,3-e]azepin-6-yl)propanamide] | < 500 nM | < 500 nM | < 500 nM | IC50 (MYC mRNA [1]; [4]): 500 to 1000 nM |
| Cc1noc2c1-c1sc(C)c(C)c1C(c1ccc(C(F)(F)F)cc1)=NC2CC(N)=O (stereo not drawn) [Compound 208] | < 500 nM | < 500 nM | < 500 nM | IC50 (MYC mRNA [1]; [4]): < 500 nM |
| Cc1noc2c1-c1ccnc(F)c1C(c1ccc(Cl)cc1)=N[C@H]2CC(N)=O [Compound 180, 2-((4S)-6-(4-Chlorophenyl)-7-fluoro-1-methyl-4H-isoxazolo[5,4-c]pyrido[4,3-e]azepin-4-yl)acetamide] | – | – | – | IC50 (MYC mRNA [1]; Homo sapiens, Table 7, Raji (Burkitt's lymphoma) cells): 500 to 1000 nM; IC50 (MYC mRNA [2]; Homo sapiens, MV4-11, 4 h, Table 7, MV4:11 (AML) cells): 500 to 1000 nM; IC50 (IL-6 secretion; Homo sapiens, THP-1, 16 h, Table 7, LPS 4 μg/mL, normalised to CellTiter-Glo): < 500 nM |
| Cc1cccc2c1C(c1ccc(C#N)cc1)=N[C@@H](CC(N)=O)c1onc(C)c1-2 [Compound 130] | – | – | – | IC50 (BRD4(BD1); Table 6, BRD4(BD1) 30 nM, H4-tetraacetyl peptide 200 nM, read-out: BRD4 Alphascreen IC50): < 500 nM; IC50 (MYC mRNA [1]; Table 7, Raji (Burkitt's lymphoma) cells): < 500 nM; IC50 (MYC mRNA [2]; Table 7, MV4:11 (AML) cells, 4 h): < 500 nM; IC50 (IL-6 secretion; Table 7, LPS 4 μg/mL, normalised to CellTiter-Glo): < 500 nM |
| Cc1noc2c1-c1ccc(O)cc1C(c1ccc(Cl)cc1)=N[C@H]2CC(N)=O [Compound 239, 2-((4S)-6-(4-chlorophenyl)-8-hydroxy-1-methyl-4H-benzo[c]isoxazolo[4,5-e]azepin-4-yl)acetamide] | < 500 nM | < 500 nM | < 500 nM | – |
| Cc1noc2c1-c1ccnc(Oc3ccccc3)c1C(c1ccc(Cl)cc1)=NC2 [Compound 229, 6-(4-Chlorophenyl)-1-methyl-7-phenoxy-4H-isoxazolo[5,4-c]pyrido[4,3-e]azepine] | > 1000 nM | > 1000 nM | > 1000 nM | – |
| Cc1noc2c1-c1ccc(N)nc1C(c1ccc(Cl)cc1)=NC2 [Compound 257, 6-(4-Chlorophenyl)-1-methyl-4H-isoxazolo[5,4-c]pyrido[3,2-e]azepin-8-amine] | < 500 nM | > 1000 nM | 500 to 1000 nM | – |
| Cc1noc2c1-c1cnc(N3CCCC3)cc1C(c1ccc(Cl)cc1)=NC2 [Compound 255, 6-(4-Chlorophenyl)-1-methyl-8-(pyrrolidin-1-yl)-4H-isoxazolo[5,4-c]pyrido[3,4-e]azepine] | < 500 nM | 500 to 1000 nM | < 500 nM | – |
| Cc1noc2c1-c1ccc(=O)[nH]c1C(c1ccc(Cl)cc1)=NC2 [Compound 243, 6-(4-Chlorophenyl)-1-methyl-4H-isoxazolo[5,4-c]pyrido[3,2-e]azepin-8(7H)-one] | 500 to 1000 nM | > 1000 nM | > 1000 nM | – |
| Cc1noc2c1-c1ccc(Cl)nc1C(c1ccc(Cl)cc1)=NC2 [Compound 240, 8-Chloro-6-(4-chlorophenyl)-1-methyl-4H-isoxazolo[5,4-c]pyrido[3,2-e]azepine] | > 1000 nM | > 1000 nM | > 1000 nM | – |
| COc1ccc2c(c1)C(c1ccc(Cl)cc1)=N[C@@H](CC(N)=O)c1onc(C)c1-2 [Compound 217, 2-((4S)-6-(4-chlorophenyl)-8-methoxy-1-methyl-4H-benzo[c]isoxazolo[4,5-e]azepin-4-yl)acetamide] | < 500 nM | < 500 nM | < 500 nM | – |
| CC(=O)NC(C[C@@H]1N=C(c2ccc(Cl)cc2)c2ccccc2-c2c(C)noc21)C(F)(F)F (mixture of isomers) [Compound 244, Mixture of N-((2S)-3-((4S)-6-(4-chlorophenyl)-1-methyl-4H-benzo[c]isoxazolo[4,5-e]azepin-4-yl)-1,1,1-trifluoropropan-2-yl)acetamide and N-((2R)-3-((4S)-6-(4-chlorophenyl)-1-methyl-4H-benzo[c]isoxazolo[4,5-e]azepin-4-yl)-1,1,1-trifluoropropan-2-yl)acetamide] | > 1000 nM | > 1000 nM | > 1000 nM | – |
| Cc1noc2c1-c1ccccc1C(c1ccc(Cl)cc1)=N[C@H]2CC(C)(C)O [Compound 223, 1-((4S)-6-(4-chlorophenyl)-1-methyl-4H-benzo[c]isoxazolo[4,5-e]azepin-4-yl)-2-methylpropan-2-ol] | > 1000 nM | > 1000 nM | > 1000 nM | – |
| Cc1noc2c1-c1ccccc1C(c1ccc(Cl)cc1)=NC2C(N)=O (stereo not drawn) [Compound 218, 6-(4-chlorophenyl)-1-methyl-4H-benzo[c]isoxazolo[4,5-e]azepine-4-carboxamide] | > 1000 nM | > 1000 nM | > 1000 nM | – |
| Cc1noc2c1-c1ccc(F)cc1C(c1ccc(C#N)cc1)=N[C@H]2CC(N)=O [Compound 212] | < 500 nM | < 500 nM | < 500 nM | – |
| CCOC(=O)NC1N=C(c2ccc(Cl)cc2)c2ccccc2-c2c(C)noc21 (stereo not drawn) [Compound 225, ethyl (6-(4-chlorophenyl)-1-methyl-4H-benzo[c]isoxazolo[4,5-e]azepin-4-yl)carbamate] | < 500 nM | < 500 nM | < 500 nM | – |

| SMILES | IC50 (BRD4(BD1); [3]) | IC50 (MYC mRNA [2]; [5]) | IC50 (IL-6 secretion; [6]) | further results |
| --- | --- | --- | --- | --- |
| Cc1noc2c1-c1ccc(=O)n(C)c1C(c1ccc(Cl)cc1)=NC2 [Compound 246, 6-(4-Chlorophenyl)-1,7-dimethyl-4H-isoxazolo[5,4-c]pyrido[3,2-e]azepin-8(7H)-one] | 500 to 1000 nM | > 1000 nM | > 1000 nM | – |
| Cc1noc2c1-c1nc(N)ccc1C(c1ccc(Cl)cc1)=NC2 [Compound 228, 5-(4-Chlorophenyl)-10-methyl-7H-isoxazolo[5,4-c]pyrido[2,3-e]azepin-2-amine] | > 1000 nM | > 1000 nM | > 1000 nM | – |
| CCOC(=O)NC1N=C(c2ccc(Cl)cc2)c2ccccc2-c2c(C)noc21 (single isomer, unassigned) [Compound 253, Ethyl (6-(4-chlorophenyl)-1-methyl-4H-benzo[c]isoxazolo[4,5-e]azepin-4-yl)carbamate] | < 500 nM | < 500 nM | < 500 nM | – |
| COc1ccc2c(n1)-c1c(C)noc1CN=C2c1ccc(Cl)cc1 [Compound 219, 5-(4-Chlorophenyl)-2-methoxy-10-methyl-7H-isoxazolo[5,4-c]pyrido[2,3-e]azepine] | > 1000 nM | 500 to 1000 nM | > 1000 nM | – |
| Cc1noc2c1-c1ccc(OC(C)C)cc1C(c1ccc(Cl)cc1)=N[C@H]2CC(N)=O [Compound 249] | < 500 nM | – | – | IC50 (MYC mRNA [2]; Table 14, MV4:11 cells, 4 h): < 500 nM; IC50 (IL-6 secretion; Table 14, LPS): < 500 nM |
| Cc1noc2c1-c1ccc(Cl)cc1C(c1ccc(F)cc1)=N[C@H]2C [Compound 230] | < 500 nM | 500 to 1000 nM | < 500 nM | – |
| Cc1noc2c1-c1ccc(-c3ccc(N)nc3)cc1C(c1ccc(F)cc1)=N[C@H]2CC(N)=O [Compound 216] | < 500 nM | < 500 nM | < 500 nM | – |
| CCNC(=O)NC1N=C(c2ccc(Cl)cc2)c2ccccc2-c2c(C)noc21 (stereo not drawn) [Compound 245, 1-(6-(4-chlorophenyl)-1-methyl-4H-benzo[c]isoxazolo[4,5-e]azepin-4-yl)-3-ethylurea] | < 500 nM | < 500 nM | < 500 nM | – |
| Cc1noc2c1-c1ccccc1C(c1ccc(F)cc1)=NC2C(F)(F)F (stereo not drawn) [Compound 238, 6-(4-fluorophenyl)-1-methyl-4-(trifluoromethyl)-4H-benzo[c]isoxazolo[4,5-e]azepine] | > 1000 nM | > 1000 nM | > 1000 nM | – |
| Cc1noc2c1-c1[nH]c(=O)ccc1C(c1ccc(Cl)cc1)=NC2 [Compound 220, 5-(4-Chlorophenyl)-10-methyl-1H-isoxazolo[5,4-c]pyrido[2,3-e]azepin-2(7H)-one] | > 1000 nM | > 1000 nM | > 1000 nM | – |
| Cc1noc2c1-c1ccc(-c3ccc(C(=O)O)cc3)cc1C(c1ccc(F)cc1)=N[C@H]2C [Compound 237] | < 500 nM | < 500 nM | < 500 nM | – |
| Cc1noc2c1-c1ccc(C#N)cc1C(c1ccc(Cl)cc1)=N[C@H]2CC(N)=O [Compound 224] | < 500 nM | < 500 nM | < 500 nM | – |
| Cc1noc2c1-c1ccccc1C(c1ccc(C(C)(C)N)cc1)=N[C@H]2CC(N)=O [Compound 233] | < 500 nM | 500 to 1000 nM | 500 to 1000 nM | – |
| COc1ccc2c(n1)C(c1ccc(Cl)cc1)=NCc1onc(C)c1-2 [Compound 242, 6-(4-Chlorophenyl)-8-methoxy-1-methyl-4H-isoxazolo[5,4-c]pyrido[3,2-e]azepine] | 500 to 1000 nM | > 1000 nM | > 1000 nM | – |
| CCOc1ccc2c(c1)C(c1ccc(Cl)cc1)=N[C@@H](CC(N)=O)c1onc(C)c1-2 [Compound 248] | < 500 nM | < 500 nM | < 500 nM | – |
